Each structure is given as a SMILES string. Where only a bound is given, the exact number is not on record here.

What is called melting point is the temperature, or range, at which the solid turns liquid.

`Cc1ccc(NC(=N)NCc2ccc3c(c2)CN(C2CCC(=O)NC2=O)C3=O)cc1Cl.Cl` (stereo not drawn) showed a melting point of over 400 °C.
`CC(=O)Nc1ccc(NC(=O)NCc2ccc3c(c2)CN(C2CCC(=O)NC2=O)C3=O)cc1` (stereo not drawn) [Example 5.13, N-(4-{3-[2-(2,6-Dioxo-piperidin-3-yl)-1-oxo-2,3-dihydro-1H-isoindol-5-ylmethyl]-ureido}-phenyl)-acetamide] had a melting point of 265 to 267 °C.
Take `Cc1ccc(N/C(=N\C#N)NCc2ccc3c(c2)CN(C2CCC(=O)NC2=O)C3=O)cc1Cl` (stereo not drawn) [Example 5.30, N″-(3-Chloro-4-methyl-phenyl)-N′-[2-(2,6-dioxo-piperidin-3-yl)-1-oxo-2,3-dihydro-1H-isoindol-5-ylmethyl]-N-cyano-guanidine]: the melting point fell in the range of 325 to 327 °C.
The molecule `O=C1CCC(N2Cc3cc(CNC(=O)Nc4ccc(-c5ncc[nH]5)cc4)ccc3C2=O)C(=O)N1` (stereo not drawn) [Example 5.31, 1-[2-(2,6-Dioxo-piperidin-3-yl)-1-oxo-2,3-dihydro-1H-isoindol-5-ylmethyl]-3-[4-(1H-imidazol-2-yl)-phenyl]-urea] had a melting point of 190 to 192 °C.
In turn, `O=C1CCC(N2Cc3cc(CNC(=O)Nc4ccc(Cl)c(-c5nc6ccccc6[nH]5)c4)ccc3C2=O)C(=O)N1` (stereo not drawn) [Example 5.32, 1-[3-(1H-Benzoimidazol-2-yl)-4-chloro-phenyl]-3-[2-(2,6-dioxo-piperidin-3-yl)-1-oxo-2,3-dihydro-1H-isoindol-5-ylmethyl]-urea] displayed a melting point of 275 to 277 °C.
Molecule `NC(=O)[C@H]1CC[C@@H](NC(=O)NCc2ccc3c(c2)CN(C2CCC(=O)NC2=O)C3=O)CC1` (stereo partly drawn) [Example 5.43, 4-{3-[2-(2,6-Dioxo-piperidin-3-yl)-1-oxo-2,3-dihydro-1H-isoindol-5-ylmethyl]-ureido}-cyclohexanecarboxylic acid amide] showed a melting point of 195 to 197 °C.
`CC(C)(C)OC(=O)N1CCc2cc(NC(=O)NCc3ccc4c(c3)CN(C3CCC(=O)NC3=O)C4=O)ccc2C1` (stereo not drawn) [Example 5.46, 6-{3-[2-(2,6-Dioxo-piperidin-3-yl)-1-oxo-2,3-dihydro-1H-isoindol-5-ylmethyl]-ureido}-3,4-dihydro-1H-isoquinoline-2-carboxylic acid tert-butyl ester] returned a melting point of 230 to 232 °C.
The molecule `CC(NC(=O)NCc1ccc2c(c1)CN(C1CCC(=O)NC1=O)C2=O)c1ccc(Cl)c(Cl)c1` (stereo not drawn) [Example 5.60, 1-[1-(3,4-Dichloro-phenyl)-ethyl]-3-[2-(2,6-dioxo-piperidin-3-yl)-1-oxo-2,3-dihydro-1H-isoindol-5-ylmethyl]-urea] gave a melting point of 200 to 202 °C.
As for `COCCOCCOc1ccc(NC(=O)NCc2ccc3c(c2)CN(C2CCC(=O)NC2=O)C3=O)cc1Cl` (stereo not drawn) [Example 5.61, 1-(3-Chloro-4-(2-(2-methoxyethoxy)ethoxy)phenyl)-3-((2-(2,6-dioxopiperidin-3-yl)-1-oxoisoindolin-5-yl)methyl)urea], the figure is 188 to 190 °C.

These data come from patent publication US8318773B2, “Isoindoline compounds and methods of their use” (Celgene Corporation, priority 2008, dated 2012).
